From patent US9006464B2, “Substituted cyclopentanes having prostaglandin activity” (Allergan, Inc., priority 2007, dated 2015) come the findings set out here.

Structures are written as SMILES. Bounds are passed on as bounds.

Data set [1] concerns the target T1, EP2 (Homo sapiens, UniProt P43116). As to the kind of experiment: EP2 binding (Ki). From the text:
(§1) U.S. patent application Ser. No. 11/553,143, filed on Oct. 26, 2006, incorporated by reference herein, describes the methods used to obtain the in vitro data in Table 1 below.

For data set [2], the target named is T2, DP (Homo sapiens, UniProt Q13258).
T2 sequence (Q13258 1-359): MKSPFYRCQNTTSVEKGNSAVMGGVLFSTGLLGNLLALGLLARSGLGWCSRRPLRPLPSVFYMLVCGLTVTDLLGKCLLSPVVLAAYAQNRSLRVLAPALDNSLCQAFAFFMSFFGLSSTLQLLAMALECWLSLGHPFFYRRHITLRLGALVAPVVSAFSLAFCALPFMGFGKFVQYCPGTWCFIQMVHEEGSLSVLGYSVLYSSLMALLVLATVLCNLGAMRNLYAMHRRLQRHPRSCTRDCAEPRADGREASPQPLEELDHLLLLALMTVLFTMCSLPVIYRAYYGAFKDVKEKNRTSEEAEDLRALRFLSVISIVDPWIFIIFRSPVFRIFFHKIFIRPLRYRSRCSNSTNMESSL
Nature of the data set: Other receptors Ca2+ assay, DP. Format: cell-based. Conditions: DP receptor.
From the text: as §1

In data set [3] the target is T3, EP4 (Homo sapiens, UniProt P35408). As to the kind of experiment: EP4 Ca2+ signal assay. Format: cell-based.
From the text: as §1

The target in data set [4] is T1, EP2. Nature of the data set: EP2 cAMP assay. It counts as cell-based.
From the text: as §1
(cAMP levels reflect the balance of adenylyl cyclase and phosphodiesterase activity.)

The target of data set [5] is T3, EP4. Nature of the data set: EP4 binding (Ki).
From the text: as §1

Data set [6] concerns the target T4, EP1 (Homo sapiens, UniProt P34995).
T4 sequence (P34995 1-402): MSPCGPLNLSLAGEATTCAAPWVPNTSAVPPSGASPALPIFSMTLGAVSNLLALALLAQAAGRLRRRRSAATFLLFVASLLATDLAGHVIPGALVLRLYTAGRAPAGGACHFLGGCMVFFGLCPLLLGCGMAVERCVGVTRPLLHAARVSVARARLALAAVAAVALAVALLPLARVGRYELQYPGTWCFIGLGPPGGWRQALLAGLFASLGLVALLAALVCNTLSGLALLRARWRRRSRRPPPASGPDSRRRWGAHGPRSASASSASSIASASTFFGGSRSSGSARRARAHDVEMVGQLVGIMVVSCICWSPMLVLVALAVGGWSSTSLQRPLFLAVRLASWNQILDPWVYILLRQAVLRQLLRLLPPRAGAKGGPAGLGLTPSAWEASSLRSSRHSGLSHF
As to the kind of experiment: Other receptors Ca2+ assay, EP1. The settings on record: EP1 receptor. It counts as cell-based.
From the text: as §1

Data set [7] has as its target T5, EP3 (Homo sapiens, UniProt P43115).
T5 sequence (P43115 1-390): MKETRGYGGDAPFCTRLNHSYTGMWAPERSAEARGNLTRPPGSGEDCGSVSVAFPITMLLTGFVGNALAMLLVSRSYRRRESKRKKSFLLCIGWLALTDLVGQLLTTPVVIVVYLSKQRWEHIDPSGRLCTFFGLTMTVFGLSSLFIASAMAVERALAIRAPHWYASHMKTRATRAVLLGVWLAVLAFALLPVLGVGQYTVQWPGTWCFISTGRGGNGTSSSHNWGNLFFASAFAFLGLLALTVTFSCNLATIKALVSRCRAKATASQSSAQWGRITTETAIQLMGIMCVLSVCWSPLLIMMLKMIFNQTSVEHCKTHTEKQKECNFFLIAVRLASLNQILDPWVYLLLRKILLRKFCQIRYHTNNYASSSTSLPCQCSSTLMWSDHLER
As to the kind of experiment: Other receptors Ca2+ assay, EP3. Conditions: EP3 receptor. Format: cell-based.
From the text: as §1

The target of data set [8] is T1, EP2. As to the kind of experiment: EP2 Ca2+ signal assay. It counts as cell-based.
From the text: as §1

Data set [9] addresses T6, TP (Homo sapiens, UniProt P21731).
T6 sequence (P21731 1-343): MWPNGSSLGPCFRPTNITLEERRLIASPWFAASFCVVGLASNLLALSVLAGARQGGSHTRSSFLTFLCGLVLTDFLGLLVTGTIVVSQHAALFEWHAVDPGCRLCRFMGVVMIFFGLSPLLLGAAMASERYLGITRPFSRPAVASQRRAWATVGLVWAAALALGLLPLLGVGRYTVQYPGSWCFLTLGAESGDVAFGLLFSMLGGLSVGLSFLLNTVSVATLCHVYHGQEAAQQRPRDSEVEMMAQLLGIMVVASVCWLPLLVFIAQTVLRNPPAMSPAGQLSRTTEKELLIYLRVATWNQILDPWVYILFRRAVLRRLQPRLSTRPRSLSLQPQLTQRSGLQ
As to the kind of experiment: Other receptors Ca2+ assay, TP. It counts as cell-based. Conditions: TP receptor.
From the text: as §1

The subject of data set [10] is DOG. As to the kind of experiment: Dog ocular hyperemia. Format: in vivo. From the text:
(§2) U.S. Pat. No. 7,091,231, incorporated by reference herein, describes the methods used to obtain the in vivo test results presented in Table 2.

The test system of data set [11] is MONKEY. As to the kind of experiment: Monkey intraocular pressure test. It counts as in vivo.
From the text: as §2

The subject of data set [12] is DOG. Nature of the data set: Dog intraocular pressure test. Format: in vivo.
From the text: as §2

Data set [13] has as its target IP (Homo sapiens, UniProt P43119). As to the kind of experiment: Other receptors Ca2+ assay, IP. The settings on record: IP receptor. It counts as cell-based.
From the text: as §1

Data set [14] has as its target FP (Homo sapiens, UniProt P43088). Nature of the data set: Other receptors Ca2+ assay, FP. Conditions: FP receptor. It counts as cell-based.
From the text: as §1

T3 sequence (P35408 whole entry): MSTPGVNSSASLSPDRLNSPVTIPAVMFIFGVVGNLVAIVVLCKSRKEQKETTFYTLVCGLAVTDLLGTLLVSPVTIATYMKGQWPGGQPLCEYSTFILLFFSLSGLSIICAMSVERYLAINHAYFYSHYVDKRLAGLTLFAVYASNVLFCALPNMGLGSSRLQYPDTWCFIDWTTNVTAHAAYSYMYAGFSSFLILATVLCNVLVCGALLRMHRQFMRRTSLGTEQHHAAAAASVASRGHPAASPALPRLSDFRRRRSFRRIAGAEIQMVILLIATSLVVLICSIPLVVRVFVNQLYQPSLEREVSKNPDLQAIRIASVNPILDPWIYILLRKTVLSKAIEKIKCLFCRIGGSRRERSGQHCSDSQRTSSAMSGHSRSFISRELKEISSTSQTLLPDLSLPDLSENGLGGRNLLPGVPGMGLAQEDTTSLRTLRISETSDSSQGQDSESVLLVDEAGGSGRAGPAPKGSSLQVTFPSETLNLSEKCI
T1 sequence (P43116 whole entry): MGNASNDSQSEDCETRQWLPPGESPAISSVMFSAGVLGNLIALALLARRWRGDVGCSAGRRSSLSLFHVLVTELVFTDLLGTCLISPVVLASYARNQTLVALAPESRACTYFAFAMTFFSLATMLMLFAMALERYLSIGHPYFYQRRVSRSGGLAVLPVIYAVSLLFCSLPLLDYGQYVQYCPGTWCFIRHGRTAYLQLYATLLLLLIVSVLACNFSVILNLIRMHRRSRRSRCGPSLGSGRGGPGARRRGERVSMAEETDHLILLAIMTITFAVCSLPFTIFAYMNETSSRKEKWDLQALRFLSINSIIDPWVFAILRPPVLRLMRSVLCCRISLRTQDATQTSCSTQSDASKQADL
Chain of FP (P43088 whole entry): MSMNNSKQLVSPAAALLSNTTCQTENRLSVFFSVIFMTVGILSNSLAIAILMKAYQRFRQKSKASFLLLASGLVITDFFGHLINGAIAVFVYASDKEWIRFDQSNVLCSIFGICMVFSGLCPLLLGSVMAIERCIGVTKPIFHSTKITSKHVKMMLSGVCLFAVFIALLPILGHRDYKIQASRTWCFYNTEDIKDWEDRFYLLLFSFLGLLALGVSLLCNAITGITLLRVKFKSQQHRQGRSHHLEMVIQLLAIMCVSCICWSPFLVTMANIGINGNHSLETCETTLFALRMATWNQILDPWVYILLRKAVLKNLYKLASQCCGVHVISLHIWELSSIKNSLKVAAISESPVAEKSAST
Chain of IP (P43119 whole entry): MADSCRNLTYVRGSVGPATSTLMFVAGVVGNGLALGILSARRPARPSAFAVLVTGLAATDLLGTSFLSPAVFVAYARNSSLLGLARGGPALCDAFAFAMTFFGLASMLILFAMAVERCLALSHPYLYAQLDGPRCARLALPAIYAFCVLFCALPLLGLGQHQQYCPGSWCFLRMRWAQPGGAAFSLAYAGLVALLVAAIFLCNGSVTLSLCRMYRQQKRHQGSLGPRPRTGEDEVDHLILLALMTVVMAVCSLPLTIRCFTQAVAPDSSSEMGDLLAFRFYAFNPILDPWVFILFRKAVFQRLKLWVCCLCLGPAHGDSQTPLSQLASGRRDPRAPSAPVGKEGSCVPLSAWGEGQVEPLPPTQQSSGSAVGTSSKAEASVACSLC

By Ki is commonly meant the equilibrium dissociation constant of an inhibitor or competing ligand from its target. Broadly, the EC50 is the concentration giving half of the maximal effect. Turning to `CCCCCC(O)/C=C/[C@@H]1[C@@H](CCCc2ccc(C(=O)O)s2)[C@H](Cl)C[C@H]1O` (single isomer, unassigned) [Entry 15], the Ki turned out to be 0.007 µM in data set [1] and 0.004 µM in data set [5]. Besides, the EC50 stood at 0.01 µM in data set [2]; 0.0002 µM in data set [3]; 0.0004 µM in data set [4]; 0.0013 µM in data set [6]; 0.006 µM in data set [7]; 0.0008 µM in data set [8]. This compound also came in with an EC50 in [9] of 0.178 µM.

`CCCCCCCC[C@@H]1[C@@H](CCCc2ccc(C(=O)OCCO)s2)[C@H](Cl)C[C@H]1O` [Entry 1-8, 5-[3-((1R,2R,3R,5R)-5-Chloro-3-hydroxy-2-octyl-cyclopentyl)-propyl]-thiophene-2-carboxylic acid 2-hydroxy-ethyl ester]: in data set [10] (Conc. 0.01 g/100 mL), the “DOG Max. hyperemia” value amounted to 2.0. The “MONKEY Max. ΔIOP” value in data set [11] (Conc. 0.01 g/100 mL) stood at 53%. For the same compound, the “DOG Max. ΔIOP” value in [12] (Conc. 0.01 g/100 mL) is on record as 35%.

Consider `CCCCCCCC[C@@H]1[C@@H](CCCc2ccc(C(=O)OC(C)C)s2)[C@H](Cl)C[C@H]1O` [Entry 1-9], for which the “DOG Max. hyperemia” value in data set [10] (Conc. 0.01 g/100 mL) is 0.9. Further, the “DOG Max. ΔIOP” value in data set [12] (Conc. 0.01 g/100 mL) came to 22%.

With `CCCCCCC[C@@H]1[C@@H](CCCc2ccc(C(=O)O)s2)[C@H](Cl)C[C@H]1O` [Entry 3, 5-[3-((1R,2R,3R,5R)-5-Chloro-2-heptyl-3-hydroxy-cyclopentyl)-propyl]-thiophene-2-carboxylic acid], the Ki in [1] is 0.003 µM; in data set [5], 0.33 µM. The EC50 in data set [2] is 2.25 µM; in data set [3] it was 7.51 µM; in [13], more than 10 µM; in [4] it was 0.002 µM; in data set [6], 3.39 µM; in data set [7], 6.66 µM. In addition, the EC50 in data set [8] was 0.067 µM; in [14] it was not below 10 µM; in data set [9], not below 10 µM.

On to `CCCCCCCC[C@@H]1[C@@H](CCCc2ccc(C(=O)O)s2)[C@H](Cl)C[C@H]1O` [Entry 4, 5-[3-((1R,2R,3R,5R)-5-Chloro-3-hydroxy-2-octyl-cyclopentyl)-propyl]-thiophene-2-carboxylic acid], for which the Ki in data set [1] worked out at 0.0005 µM; in [5] it was 0.395 µM. In addition, the half-maximal effective concentration (EC50) in data set [2] came to 6.77 µM; in [3], 11.4 µM; in data set [4] it was 0.0004 µM; in data set [6], 18.2 µM; in [7] it was 9.53 µM; in [8] it was 0.011 µM. The “DOG Max. hyperemia” value in data set [10] (Conc. 0.01 g/100 mL) is 1.3. Besides, the “MONKEY Max. ΔIOP” value in [11] (Conc. 0.01 g/100 mL) was determined as 31%. For the same compound, the “DOG Max. ΔIOP” value in data set [12] (Conc. 0.01 g/100 mL) was found to be 40%.

With `CCCCCCCC[C@@H]1[C@@H](CCSc2nc(C(=O)O)cs2)[C@H](Cl)C[C@H]1O` [Entry 6-8, 2-(2-((1R,2R,3R,5R)-5-chloro-3-hydroxy-2-octylcyclopentyl)ethylthio)thiazole-4-carboxylic acid], in [10] (Conc. .005% (g/100 mL)), the “DOG Max. hyperemia” value is 2.4. In data set [11] (Conc. .005% (g/100 mL)), the “MONKEY Max. ΔIOP” value came to 56%. Moreover, in data set [12] (Conc. .005% (g/100 mL)), the “DOG Max. ΔIOP” value was 44%.

Take `C=CCCCCCC[C@@H]1[C@@H](CCCc2ccc(C(=O)O)s2)[C@H](Cl)C[C@H]1O` [Entry 12, 5-[3-((1R,2R,3R,5R)-5-Chloro-3-hydroxy-2-oct-7-enyl-cyclopentyl)-propyl]-thiophene-2-carboxylic acid]: the Ki is 0.003 µM in data set [1] and 0.351 µM in data set [5]. Also, the EC50 came out at 3.21 µM in [2]; 6.47 µM in data set [3]; 0.0002 µM in data set [4]; 0.883 µM in data set [6]; 4.99 µM in [7]; 0.007 µM in data set [8]. Further, the EC50 in data set [14] stood at 7.57 µM; in [9], 10.3 µM.
